Experimental data taken from patent publication US20090124587A1, “METHODS FOR TREATING CANCER USING 17alpha-HYDROXYLASE/C17,20-LYASE INHIBITORS” (priority 2007, published 2009).
Like-named read-outs stand apart in the source and are kept apart here.

Test: Food effect PK study, two single oral 1000 mg doses of abiraterone acetate, fed (high fat) vs fasted
Assay type: in vivo, human
Details: for concentration at 1.017 h: read-out: Abiraterone Concentration in plasma; for clearance: read-out: Cl F obs (converted); for Vd/F: read-out: Vz F obs; for concentration at 1.033 hr: sample time 1.033 hr; for concentration at 6 hr: sample time 6.000 hr; for concentration at 8 hr: sample time 8.000 hr; for concentration at 1 hr: sample time 1.000 hr; for concentration at 7.983 hr: sample time 7.983 hr
Method: To measure the amount of abiraterone and abiraterone acetate in the samples, these compounds were extracted from 100 uL human plasma using solid phase extraction (SPE) with cation mixed-mode polymer cartridges. Extracts were evaporated to dryness before reconstitution and analysis. Chromatography was carried out using a Luna™ C5 column (5 μm, 50 mm×2.1 mm id) with a gradient mobile phase consisting of 10 mM ammonium acetate and 2% propan-2-ol in acetonitrile. The flow rate was 0.2 mL/min and the run time 10.5 minutes. Abiraterone and abiraterone acetate were ionized using the electrospray interface in positive ion mode. Detection of analytes was via tandem mass spectrometry (MS/MS) in the multiple reaction monitoring (MRM) mode.
PK modeling was conducted using a non-compartmental model, extra vascular input for plasma with WinNonLin Software®. Pharmacokinetic parameters estimated in the model include:
Based on the above results, the PK parameters for a single dose of 1000 mg/day of abiraterone acetate were further studied in the 3 subjects who were administered the 1000 mg/day dose and in 3 additional subjects. Two single oral doses (1000 mg) of abiraterone acetate were administered separately, one concomitantly with food of high fat content and one in fasting state. The first single dose was administered on day −9 with PK blood samples being taken at 1, 2, 4, 6, 8, 24, 48 and 72 hours post dose. The second single dose was administered on day −3 with PK blood samples being taken at 1, 2, 4, 6, 8, 24 and 48 hours post dose for analysis.

[1] = human, plasma, oral, 1000 mg, Patient 13, 1000 mg, Fasted
[2] = human, plasma, oral, 1000 mg, Patient 13, 1000 mg, Fed
[3] = human, plasma, oral, 1000 mg, Patient 13, Fasted
[4] = human, plasma, oral, 1000 mg, Patient 13, Fed
[5] = human, plasma, oral, 1000 mg, Patient 14, 1000 mg, Fasted
[6] = human, plasma, oral, 1000 mg, Patient 14, 1000 mg, Fed
[7] = human, plasma, oral, 1000 mg, Patient 14, Fasted
[8] = human, plasma, oral, 1000 mg, Patient 14, Fed
[9] = human, plasma, oral, 1000 mg, Patient 15, 1000 mg, Fasted
[10] = human, plasma, oral, 1000 mg, Patient 15, 1000 mg, Fed
[11] = human, plasma, oral, 1000 mg, Patient 15, Fasted
[12] = human, plasma, oral, 1000 mg, Patient 15, Fed

Abiraterone plasma levels with food in comparison with fasting (1000 mg, concomitantly with food vs fasting): higher
HL (Patient 13, 1000 mg, Fasted): 10.2 h
HL (Patient 13, 1000 mg, Fed): 10.7 h
concentration at 1.017 h (Patient 13, Fasted, 1000 mg, pre-dose (day −3)): 0 µM
concentration at 1.017 h (Patient 13, Fed, 1000 mg, pre-dose (day −9)): 0 µM
Abiraterone Concentration in plasma (Patient 13, Fed, 1000 mg, sample time 72.000 hr): BLLOQ^1
HL (Patient 14, 1000 mg, Fasted): 6.6 h
HL (Patient 14, 1000 mg, Fed): 8.8 h
concentration at 1.017 h (Patient 14, Fasted, 1000 mg, pre-dose (day −9)): 0 µM
Abiraterone Concentration in plasma (Patient 14, Fasted, 1000 mg, sample time 48.217 hr): BLLOQ
concentration at 1.017 h (Patient 14, Fed, 1000 mg, pre-dose (day −3)): 0 µM
HL (Patient 15, 1000 mg, Fasted): 6.6 h
HL (Patient 15, 1000 mg, Fed): 8.0 h
Abiraterone Concentration in plasma (Patient 15, Fasted, 1000 mg, pre-dose (day −3)): BLLOQ
concentration at 1.017 h (Patient 15, Fed, 1000 mg, pre-dose (day −9)): 0 µM
Abiraterone Concentration in plasma (Patient 15, Fed, 1000 mg, sample time 2.000 hr): BLLOQ
Abiraterone Concentration in plasma (Patient 15, Fed, 1000 mg, sample time 70.100 hr): BLLOQ
HL (Patient 19, 1000 mg, Fasted): 8.0 h
HL (Patient 19, 1000 mg, Fed): 10.0 h
concentration at 1.017 h (Patient 19, Fasted, 1000 mg, pre-dose (day −9)): 0 µM
Abiraterone Concentration in plasma (Patient 19, Fasted, 1000 mg, sample time 71.950 hr): BLLOQ
concentration at 1.017 h (Patient 19, Fed, 1000 mg, pre-dose (day −3)): 0 µM
HL (Patient 20, 1000 mg, Fasted): 15.3 h
HL (Patient 20, 1000 mg, Fed): 18.3 h
concentration at 1.017 h (Patient 20, Fasted, 1000 mg, pre-dose (day −3)): 0.0051 µM
Abiraterone Concentration in plasma (Patient 20, Fed, 1000 mg, pre-dose (day −9)): BLLOQ
HL (Patient 21, 1000 mg, Fasted): 12.6 h
HL (Patient 21, 1000 mg, Fed): 9.7 h
concentration at 1.017 h (Patient 21, Fasted, 1000 mg, pre-dose (day −9)): 0 µM
Abiraterone Concentration in plasma (Patient 21, Fed, 1000 mg, pre-dose (day −3)): BLLOQ
difference in mean drug levels between the dosing regimes (fed vs fasted) (extended cohort of six patients): Up to a two fold difference
clearance [1]: 12600 mL/min
Vd/F [1]: 11100 L
clearance [2]: 4240 mL/min
Vd/F [2]: 3920 L
AUC(0-inf) [3]: 3.78 µM·h
AUC(0-t) [3]: 3.7 µM·h
Cmax [3]: 0.548 µM
Tmax [3]: 1.03 h
concentration at 1.033 hr [3]: 0.548 µM
concentration at 2.017 hr (human, plasma, oral, 1000 mg, Patient 13, Fasted, sample time 2.017 hr): 0.501 µM
concentration at 4 hr (human, plasma, oral, 1000 mg, Patient 13, Fasted, sample time 4.000 hr): 0.304 µM
concentration at 6 hr [3]: 0.104 µM
concentration at 8 hr [3]: 0.0894 µM
concentration at 24.667 hr (human, plasma, oral, 1000 mg, Patient 13, Fasted, sample time 24.667 hr): 0.0341 µM
concentration at 48.117 hr (human, plasma, oral, 1000 mg, Patient 13, Fasted, sample time 48.117 hr): 0.0058 µM
AUC(0-inf) [4]: 11.2 µM·h
AUC(0-t) [4]: 10.8 µM·h
Cmax [4]: 1.18 µM
Tmax [4]: 4 h
concentration at 1 hr [4]: 0.13 µM
concentration at 2 h (human, plasma, oral, 1000 mg, Patient 13, Fed, sample time 2.000 hr): 0.675 µM
concentration at 4 h (human, plasma, oral, 1000 mg, Patient 13, Fed, sample time 4.000 hr): 1.18 µM
concentration at 7.983 hr [4]: 0.392 µM
concentration at 23.983 hr (human, plasma, oral, 1000 mg, Patient 13, Fed, sample time 23.983 hr): 0.0937 µM
concentration at 48.5 hr (human, plasma, oral, 1000 mg, Patient 13, Fed, sample time 48.500 hr): 0.0268 µM
clearance [5]: 32600 mL/min
Vd/F [5]: 18500 L
clearance [6]: 4050 mL/min
Vd/F [6]: 3070 L
AUC(0-inf) [7]: 1.46 µM·h
AUC(0-t) [7]: 1.35 µM·h
Cmax [7]: 0.205 µM
Tmax [7]: 4.07 h
concentration at 1 hr [7]: 0.0763 µM
concentration at 2 hr (human, plasma, oral, 1000 mg, Patient 14, Fasted, sample time 2.000 hr): 0.0825 µM
concentration at 4.067 hr (human, plasma, oral, 1000 mg, Patient 14, Fasted, sample time 4.067 hr): 0.205 µM
concentration at 6.05 hr (human, plasma, oral, 1000 mg, Patient 14, Fasted, sample time 6.050 hr): 0.0998 µM
concentration at 8.017 hr (human, plasma, oral, 1000 mg, Patient 14, Fasted, sample time 8.017 hr): 0.0486 µM
concentration at 24.017 hr (human, plasma, oral, 1000 mg, Patient 14, Fasted, sample time 24.017 hr): 0.0121 µM
concentration at 71.333 hr (human, plasma, oral, 1000 mg, Patient 14, Fasted, sample time 71.333 hr): 0 µM
AUC(0-inf) [8]: 11.8 µM·h
AUC(0-t) [8]: 11.6 µM·h
Cmax [8]: 2.21 µM
Tmax [8]: 1.03 h
concentration at 1.033 hr [8]: 2.21 µM
concentration at 2.033 hr (human, plasma, oral, 1000 mg, Patient 14, Fed, sample time 2.033 hr): 1.77 µM
concentration at 4 hr (human, plasma, oral, 1000 mg, Patient 14, Fed, sample time 4.000 hr): 0.464 µM
concentration at 6 hr [8]: 0.516 µM
concentration at 7.983 hr [8]: 0.335 µM
concentration at 24.083 hr (human, plasma, oral, 1000 mg, Patient 14, Fed, sample time 24.083 hr): 0.0797 µM
concentration at 47.7 hr (human, plasma, oral, 1000 mg, Patient 14, Fed, sample time 47.700 hr): 0.0142 µM
clearance [9]: 18400 mL/min
Vd/F [9]: 10500 L
clearance [10]: 4610 mL/min
Vd/F [10]: 3190 L
AUC(0-inf) [11]: 2.59 µM·h
AUC(0-t) [11]: 2.37 µM·h
Cmax [11]: 0.42 µM
Tmax [11]: 2.98 h
concentration at 1 hr [11]: 0.0087 µM
concentration at 2.983 hr (human, plasma, oral, 1000 mg, Patient 15, Fasted, sample time 2.983 hr): 0.42 µM
concentration at 3.967 hr (human, plasma, oral, 1000 mg, Patient 15, Fasted, sample time 3.967 hr): 0.242 µM
concentration at 5.983 hr (human, plasma, oral, 1000 mg, Patient 15, Fasted, sample time 5.983 hr): 0.131 µM
concentration at 8 hr [11]: 0.111 µM
concentration at 22.983 hr (human, plasma, oral, 1000 mg, Patient 15, Fasted, sample time 22.983 hr): 0.0224 µM
AUC(0-inf) [12]: 10.3 µM·h
AUC(0-t) [12]: 10.1 µM·h
Cmax [12]: 1.12 µM
Tmax [12]: 6.08 h
concentration at 1 hr [12]: 0 µM
SMILES: C[C@]12CC[C@H](O)CC1=CC[C@@H]1[C@@H]2CC[C@]2(C)C(c3cccnc3)=CC[C@@H]12 [Abiraterone]
